# Patent US4789587A, “(1,3-dioxolan-2-yl-methyl)-1H-imidazoles as bactericidal and/or fungicidal agents” (IRE-Celltarg, S.A., priority 1986, dated 1988)
# Test system: Candida albicans ATCCe 10231
# Assay: minimum fungicidal concentration, subculture on YM agar, C. albicans
# Type: cell-based
# Conditions: ATCCE10231, read-out: MFC C. albicans
# Method: (§1) The activity of the new derivatives according to the invention was tested in vitro by determining the minimum inhibiting concentration (MIC) of the molecules and their fungicidal (minimum fungicidal concentration MFC) or bactericidal (minimum bactericidal concentration MBC) activity. MFC and MBC are defined as the minimum dose which kills 99.9% of the organisms contained in the inoculum. Two species of yeasts pathogenic to man were used: Candida albicans ATCCe 10231 and Candida tropicalis ATCC 13803. Two species of bacteria were included in the screening: Staphylococcus aureus ATCC 25923 and Salmonella typhimurium LT2, strain Demerec. The MIC is determined after culturing overnight in a liquid medium, by the microtitration method in dishes containing 96 wells over a concentration range of 100 μM to 0.0008 μM. The inoculum contains 10^5 to 10^6 organisms/ml. The culture media consist on the one hand of RPMI to which 20% of foetal calf serum (inactivated for one hour at 56°) has been added in order to determine the fungistatic activity and Mueller-Hinton agar in order to determine the bacteriostatic power of the newly synthesized molecules on the other. The MFC and MBC for each of these molecules are obtained by subculturing a sample containing 10^3 organisms from each well giving negative results for the growth of the organisms, in a solid medium consisting of YM agar (yeasts) or Mueller-Hinton agar (bacteria) overnight at 37°.
row,SMILES,MFC
1,"Clc1ccc(C2(Cn3ccnc3)OCC(COc3ccc(N4CCNCC4)cc3)O2)c(Cl)c1 (stereo not drawn) [Cis-1-[A]-piperazine, reference compound]",2.35 µM

# Test system: Salmonella typhimurium LT2, strain Demerec
# Assay: minimum inhibiting concentration, microtitration in liquid medium, S. typhimurium
# Type: cell-based
# Conditions: Salmonella enterica, read-out: MIC S. typhimurium
# Method: as §1
row,SMILES,MIC
1,"Clc1ccc(C2(Cn3ccnc3)OCC(COc3ccc(N4CCNCC4)cc3)O2)c(Cl)c1 (stereo not drawn) [Cis-1-[A]-piperazine, reference compound]",> 100 µM

# Test system: Staphylococcus aureus ATCC 25923
# Assay: minimum bactericidal concentration, subculture on Mueller-Hinton agar, S. aureus
# Type: cell-based
# Conditions: ATCC25923, read-out: MFC S. aureus, minimum dose which kills 99.9% of the organisms (MBC), overnight at 37°
# Method: as §1
row,SMILES,MBC
1,"Clc1ccc(C2(Cn3ccnc3)OCC(COc3ccc(N4CCNCC4)cc3)O2)c(Cl)c1 (stereo not drawn) [Cis-1-[A]-piperazine, reference compound]",25 µM

# Test system: Staphylococcus aureus ATCC 25923
# Assay: minimum inhibiting concentration, microtitration in liquid medium, S. aureus
# Type: cell-based
# Conditions: ATCC25923, read-out: MIC S. aureus
# Method: as §1
row,SMILES,MIC
1,"Clc1ccc(C2(Cn3ccnc3)OCC(COc3ccc(N4CCNCC4)cc3)O2)c(Cl)c1 (stereo not drawn) [Cis-1-[A]-piperazine, reference compound]",3.65 µM
2,"Clc1ccc(COC(Cn2ccnc2)c2ccc(Cl)cc2Cl)c(Cl)c1 (stereo not drawn) [Miconazole, reference compound]",1.56 µM

# Test system: Leydig tumor cells from mice (I-10, ATCC No. CCL83)
# Assay: in vitro synthesis of steroids: progesterone secretion by Leydig tumor cells induced by cAMP
# Type: cell-based
# Conditions: 9.4×10^-7 M, dibutyryl-cAMP 1×10^-4 M, 3 hours incubation with compound; control 3546, basal 554
# Source text: (§2) Ketoconazole and its derivatives reduce the plasma levels of testosterone by inhibiting certain enzymes involved in its biogenesis. Progesterone is a key intermediate in the biogenesis of steroid hormones as it leads especially to estradiol in the ovary and to testosterone in the testicles. The inhibiting power of ketoconazole and its derivatives on the enzyme chain for the biogenesis of steroid hormones may be assessed by measuring the conversion of cholesterol into progesterone. A method of determination which enables this property to be quantified is described below.
# (§3) Leydig tumor cells from mice (I-10, ATCC No. CCL83) were grown in a HAM's F10 medium to which 15% of horse serum and 2.5% of foetal calf serum were added. These cells have the property of secreting progesterone and a product of reduction of the latter which is no longer metabolized, 20α-hydroxy-4-pregnen-3-one. This secretion of steroids is induced by the addition of cAMP in the form of its dibutyryl ester (N^6, O^2' -dibutyryladenosine 3', 5'-cyclic monophosphate sodium salt monohydrate (Sigma)). The cells are subcultured in 25 cm^2 falcon dishes and maintained under CO2 (10%). When these become confluent (±1 mg/ml proteins) the medium is replaced with fresh medium containing dibutyryl-cAMP (1×10^-4 M). After incubating for 1 hour with the cAMP, the ketoconazole or its derivatives are added (9.4×10^-7 M) to the culture medium. After incubating for a further period of 3 hours, the supernatants are collected and will be used for the analysis of steroids by HPLC. The cells are rinsed with PBS (phosphate buffered saline: NaCl 0.15M, KCl 2.7 mM, Na2 HPO4 -KH2 PO4 3 mM pH 7.4) and after treating with DOC (deoxycholic acid), the determination of proteins is carried out by the Lowry method.
# (§4) For the determination of steroids, 2 ml of the culture medium are brought into contact with 5 ml of ether. The tubes are vortexed for 2 minutes. After freezing the aqueous phases in an isopropanol/solid carbon dioxide bath, the ether phase is collected and the ether is evaporated off under a stream of nitrogen at 30° C. The dry extract is then diluted in 150 μl of water and 150 μl of acetonitrile and centrifuged at 13,000 rpm for 10 minutes. 30 μl of the supernatant are injected into HPLC on a 4 mm diameter, 30 cm long μBondapack C18 column (WATERS). The mobile phase consists of 38% of water, 31% acetonitrile and 31% methanol. The flowrate is 2 ml/min and readings are taken at 245 nm.
row,SMILES,Progesterone (1)
1,"Clc1ccc(C2(Cn3ccnc3)OCC(COc3ccc(N4CCNCC4)cc3)O2)c(Cl)c1 (stereo not drawn) [Cis-1-[A]-piperazine, reference compound]",2783 ng of steroids/mg of cell prot
2,"CC(C)CC(N)C(=O)N1CCN(c2ccc(OCC3COC(Cn4ccnc4)(c4ccc(Cl)cc4Cl)O3)cc2)CC1 (stereo not drawn) [No. 9, Cis-4-[A]-1-(leucyl)piperazine]",2231 ng of steroids/mg of cell prot
3,"NC(Cc1ccccc1)C(=O)N1CCN(c2ccc(OCC3COC(Cn4ccnc4)(c4ccc(Cl)cc4Cl)O3)cc2)CC1 (stereo not drawn) [No. 10, Cis-4-[A]-1-(phenylalanyl)piperazine]",323 ng of steroids/mg of cell prot

# Same assay, conditions: Mus musculus, Leydig, read-out: Progesterone (2) % enzyme activity relative to control
row,SMILES,"progesterone secretion, % of cAMP-induced control at 0.94 µM"
1,"Clc1ccc(C2(Cn3ccnc3)OCC(COc3ccc(N4CCNCC4)cc3)O2)c(Cl)c1 (stereo not drawn) [Cis-1-[A]-piperazine, reference compound]",78%

# Same assay, conditions: Mus musculus, Leydig; 9.4×10^-7 M; relative to cells induced by cAMP in the absence of inhibitor; read-out: Progesterone (2) % enzyme activity relative to control
row,SMILES,"progesterone secretion, % of cAMP-induced control at 0.94 µM"
1,"CC(C)CC(N)C(=O)N1CCN(c2ccc(OCC3COC(Cn4ccnc4)(c4ccc(Cl)cc4Cl)O3)cc2)CC1 (stereo not drawn) [No. 9, Cis-4-[A]-1-(leucyl)piperazine]",63%
2,"NC(Cc1ccccc1)C(=O)N1CCN(c2ccc(OCC3COC(Cn4ccnc4)(c4ccc(Cl)cc4Cl)O3)cc2)CC1 (stereo not drawn) [No. 10, Cis-4-[A]-1-(phenylalanyl)piperazine]",9%

# Test system: Candida tropicalis ATCC 13803
# Assay: minimum fungicidal concentration, subculture on YM agar, C. tropicalis
# Type: cell-based
# Conditions: ATCC13803, read-out: MFC C. tropicalis
# Method: as §1
row,SMILES,MFC
1,"Clc1ccc(C2(Cn3ccnc3)OCC(COc3ccc(N4CCNCC4)cc3)O2)c(Cl)c1 (stereo not drawn) [Cis-1-[A]-piperazine, reference compound]",1.58 µM

# Test system: Leydig tumor cells from mice (I-10, ATCC No. CCL83)
# Assay: in vitro synthesis of steroids: 20α-hydroxy-4-pregnen-3-one secretion by Leydig tumor cells induced by cAMP
# Type: cell-based
# Conditions: 9.4×10^-7 M, dibutyryl-cAMP 1×10^-4 M, 3 hours incubation with compound; control 1744, basal 785
# Source text: as §2, §3, §4
row,SMILES,20α-OH-4-pregnen-3-one (1)
1,"Clc1ccc(C2(Cn3ccnc3)OCC(COc3ccc(N4CCNCC4)cc3)O2)c(Cl)c1 (stereo not drawn) [Cis-1-[A]-piperazine, reference compound]",1461 ng of steroids/mg of cell prot
2,"CC(C)CC(N)C(=O)N1CCN(c2ccc(OCC3COC(Cn4ccnc4)(c4ccc(Cl)cc4Cl)O3)cc2)CC1 (stereo not drawn) [No. 9, Cis-4-[A]-1-(leucyl)piperazine]",1725 ng of steroids/mg of cell prot
3,"NC(Cc1ccccc1)C(=O)N1CCN(c2ccc(OCC3COC(Cn4ccnc4)(c4ccc(Cl)cc4Cl)O3)cc2)CC1 (stereo not drawn) [No. 10, Cis-4-[A]-1-(phenylalanyl)piperazine]",605 ng of steroids/mg of cell prot

# Same assay, conditions: Mus musculus, Leydig, read-out: 20α-OH-4-pregnen-3-one (2) % enzyme activity relative to control
row,SMILES,activity at 0.94 µM
1,"Clc1ccc(C2(Cn3ccnc3)OCC(COc3ccc(N4CCNCC4)cc3)O2)c(Cl)c1 (stereo not drawn) [Cis-1-[A]-piperazine, reference compound]",84%

# Same assay, conditions: Mus musculus, Leydig; 9.4×10^-7 M; relative to cells induced by cAMP in the absence of inhibitor; read-out: 20α-OH-4-pregnen-3-one (2) % enzyme activity relative to control
row,SMILES,activity at 0.94 µM
1,"CC(C)CC(N)C(=O)N1CCN(c2ccc(OCC3COC(Cn4ccnc4)(c4ccc(Cl)cc4Cl)O3)cc2)CC1 (stereo not drawn) [No. 9, Cis-4-[A]-1-(leucyl)piperazine]",99%
2,"NC(Cc1ccccc1)C(=O)N1CCN(c2ccc(OCC3COC(Cn4ccnc4)(c4ccc(Cl)cc4Cl)O3)cc2)CC1 (stereo not drawn) [No. 10, Cis-4-[A]-1-(phenylalanyl)piperazine]",35%
